Experimental data taken from patent publication US8604070B2, “Use of inhibitors of the renin-angiotensin system” (FinVector Vision Therapies, Ltd., priority 1997, dated 2013).
“Also recorded” adds a separate entry of the source.

Columns and labels:
rat cardiomyocytes [1] = assay: Mitochondrial membrane potential (ΔΨm) by JC-1 flow cytometry; format: cell-based; details: 1 μM
Description: (§1) It is based on observation of the potential difference (ΔΨm) across the inner mitochondrial membrane that is generated by the extrusion of protons to the outside of the mitochondrion during the transport of electrons from electron-carrying coenzymes to molecular oxygen. Part of the energy stored in ΔΨm is utilised to support the synthesis of most of the ATP derived from aerobic metabolism. Thus, ΔΨm is an indicator of the energisation state of the mitochondrion, and also of the efficiency of oxygen utilisation to generate chemical energy. To investigate whether some of the therapeutic properties of ACE inhibitors could be accounted for by an increase in ΔΨm, this parameter was examined in rat cardiomyocytes, following pre-treatment with the ACE inhibitor lisinopril.
More particularly, cardiomyocytes were isolated from new-born Sprague-Dawley rats hearts and maintained in 30 mm tissue culture dishes in the presence of DMEM supplemented with 1% foetal calf serum at 37° C. in a humidified 5% CO2 atmosphere. For experiments, cultures were treated with 1 μM lisinopril or with an equivalent amount of vehicle for various lengths of time, before analysis of ΔΨm.
To measure ΔΨm, the mitochondrial-specific probes rhodamine 123 (Rh123) and 5,5′,6,6′-tetrachloro-1,1′,3,3′-tetraethylbenzimidazolocarbocyanine iodide (JC-1) were used. Cells were incubated for 15 min with 2.5 μM Rh123 or for 10 min with […] JC-1 (Molecular Probes) in fresh culture medium, at 37° C. and 5% CO2. […] Data were acquired and analysed using Lysis II software (Becton Dickinson).
JC-1 is a more reliable and sensitive fluorescent probe for assessing changes in ΔΨm. At low concentrations, JC-1 exists mainly in a monomeric form which is characterised by the emission of green fluorescence. […] These aggregates are characterized by the emission of red fluorescence. Thus, an increase in the red to green fluorescence ratio indicates an increase in ΔΨm. […] Thus, the ratio of red to green fluorescence (□) increased as the time of incubation with lisinopril progressed.

rat cardiomyocytes [2] = assay: Mitochondrial membrane potential (ΔΨm) by Rh123 flow cytometry; format: cell-based; details: 1 μM, pre-treatment for 36 hours
Description: as §1
More particularly, cardiomyocytes were isolated from new-born Sprague-Dawley rats hearts and maintained in 30 mm tissue culture dishes in the presence of DMEM supplemented with 1% foetal calf serum at 37° C. in a humidified 5% CO2 atmosphere. […]
To measure ΔΨm, the mitochondrial-specific probes rhodamine 123 (Rh123) and 5,5′,6,6′-tetrachloro-1,1′,3,3′-tetraethylbenzimidazolocarbocyanine iodide (JC-1) were used. […] Data were acquired and analysed using Lysis II software (Becton Dickinson).

[3] = Re-analysis of SOLVD treatment trial: cardiac cachexia and survival; format: in vivo, human
Description: The SOLVD treatment study (57) was a randomized, double-blind, and placebo-controlled trial investigating the effects of enaiapril treatment in clinically stable patients with a LVEF of 35% or less and evidence of overt congestive heart failure. The precis e details of study organisation, inclusion criteria, run-in period (2 to 7 days) and stabilization period (14 to 17 days), randomisation, treatment titration and follow-up have been reported previously (57). Based also on data not otherwise available, the results have been re-analysed, restricted to subjects who participated in the SOLVD treatment trial, who had been free of edema at baseline, who had survived for at least 4 months thereafter, who had weight measurements at baseline and from at least one follow-up visit at 4 months or later.
Of the 2082 patients, 1055 patients were randomised to treatment with enalapril (2.5 to 20 mg per pay) and 1027 patients to treatment with placebo. Body weight at baseline and during follow-up were measured per protocol. Body height was not recorded.
Comparison of means between groups was carried out using an unpaired t-test. Comparison of proportions between groups was made by employing the chi-square test. […] To address the question of whether or not ACE inhibitors influence the risk of first occunence of cachexia, the cumulative incidence of cachexia in the two treatment groups was plotted, and analysed employing the log-rank statistic (59). In the analysis of first occunence of cardiac cachexia, at any given follow-up visit, absence of information on cardiac cachexia (i.e. weight not documented at this visit) is treated as censored. The effect of cardiac cachexia on survival is assessed using Cox proportional hazard analysis (58). For these analyses, cardiac cachexia is treated as a time-dependent covariate. The assessment of cardiac cachexia at 4, 8, and 12 months was used in the analysis. These are the time points in the follow-up period with relatively high proportion of complete information on cachexia status.
The primary analysis was intention-to-treat. Statistical significance is claimed at a computed p-value <0.05 (two-sided testing). Estimates of effects are provided along with their 95% confidence intervals. Results are adjusted for a priori identified prognostic factors such as age, gender, NYHA functional class, LVEF (up to or more than 25%), and treatment status (enalapril vs placebo, in the case of assessing the effect of cardiac cachexia on survival).

[4] = Cachectic CHF patients treated with Losartan: clinical status, body composition, strength, treadmill; format: in vivo, human
Experimental: Patient 1 had cachexia due to chronic heart failure (CHF) (person, weight 50.0 kg, height 178 cm, previous weight loss 15.3 kg in 3 years=chronic weight loss). Patient 2 had CHF and a muscle myopathy suffering from idiopathic cachexia (person, weight 62 kg, height 180 cm, previous weight loss 11 kg in year=recent weight loss). Each was treated with Losartan (50 mg once daily). Clinical status and parameters of body composition, strength and treadmill exercise capacity were studies, at baseline and during follow-up. Both patients had evidence of CHF with impaired exercise capacity and impaired left ventricular function (LVEF<40%).
Bioelectrical impedance analysis (patient 1 and 2) was performed in the erect position using a body fat analyser (TANITA TBF-305, Tanita Corporation, Illinois, USA). Lean and fat mass were automatically analysed based on equations supplied and programmed into the machine by the manufacturer. These equations are based upon a comparison with measurements in a health population.
Dual energy X-ray absorptiometry (DEXA) (patient 1): Whole body DEXA-scans were performed using a Lunar model DPXIQ total body scanner (Lunar Radiation Company, Madison, Wisc., USA, Lunar system software version 4.3c). The subject was at each time point scanned rectilinearly from head to toe. A scan takes less than 20 min. The mean radiation dose per scan is reported to be about 0.75 μSv (53), about 1/50th of a normal chest X-ray. The DEXA method can be used to obtain from body density analyses values of fat tissue mass, lean tissue mass. The technical details of DEXA, performance and segment demarcation have been described (54,55). The error of lean tissue measurements is […] and of fat tissue measurements <5% (56).
Treadmill exercise test (Patients 1 and 2): The patients underwent symptom limited treadmill exercise testing. A standard Bruce protocol with the addition of a “stage 0” consisting of 3 min at a speed of 1 mile per hour with a 5% gradient was used. The patients breathed through a one-way valve connected to a respiratory mass spectrometer (Amis 2000, Odense, Denmark) and minute ventilation, oxygen consumption and carbon dioxide production were calculated on line every 10 seconds using a standard inert gas dilution technique. Patients were encouraged to exercise to exhaustion. Exercise time and oxygen consumption at peak exercise adjusted for total body weight (peak V02 in ml/kg/min) were measured as an index of the exercise capacity.
Assessment of quadriceps muscle strength (Patients 1 and 2): The subjects were seated in a rigid frame, with the legs hanging freely. An inelastic strap attached the ankle to a pressure transducer. The recording (Multitrace 2, §, Jersey, Channel Islands) from the pressure transducer was used to assess strength and to provide visual feedback to the subject. […] The best of three voluntary contractions on each leg, with a rest period of at least one minute in-between, was taken to represent the maximal voluntary quadriceps muscle strength of the right and left leg, respectively.

[5] = human skeletal muscle; cited from earlier work
[6] = Military recruits, 12 weeks training, randomised Losartan or placebo; format: in vivo, human; details: after 12 weeks training
Description: Ninety military recruits were studied before and after military training of 12 weeks duration. These were randomised to receive the AT1-receptor antagonist Losartan or placebo.

renin gene expression = details: captopril administration; cited from earlier work
[7] = rat hind limb; cited from earlier work
[8] = 5 μg/kg/day, rats; cited from earlier work
[9] = 2.5 mg; cited from earlier work
[10] = low dose, humans; cited from earlier work
[11] = 50 mg once daily, both patients

Compound: NCCCC[C@H](N[C@@H](CCc1ccccc1)C(=O)O)C(=O)N1CCC[C@H]1C(=O)O [lisinopril]
- green fluorescence (JC-1 monomer) (rat cardiomyocytes [1]; various lengths of time): corresponding decrease
- red fluorescence (JC-1 aggregates) (rat cardiomyocytes [1]; various lengths of time): progressive increase
- ratio of red to green fluorescence (rat cardiomyocytes [1]; with time of incubation): increased
- increase in Rh123 fluorescence (rat cardiomyocytes [2]): about 30%

Compound: CCOC(=O)[C@H](CCc1ccccc1)N[C@@H](C)C(=O)N1CCC[C@H]1C(=O)O [enalapril]
- risk of developing cardiac cachexia, RR (crude effect of treatment allocation) ([3]; 2.5 to 20 mg per day vs placebo, CHF patients): 0.81
- patients with weight loss of at least 7.5% with subsequently recorded weights equal to or higher than baseline ([3]; enalapril group): 6 patients
- effect on survival ([3]; independent of age, gender, NYHA class, LVEF, p<0.01): significantly beneficial effect on survival; also recorded: reduced the frequency of the risk of death
- reduction of the risk of developing cardiac cachexia ([3]; overall): 19%

Compound: CCCCc1nc(Cl)c(CO)n1Cc1ccc(-c2ccccc2-c2nn[nH]n2)cc1 [Losartan]
- exercise capacity (exercise time, peak VO2) [4, 11]: improved
- side-effects of treatment [4, 11]: No side-effects of treatment were observed
- quadriceps muscle strength ([4]; 50 mg once daily, both patients, both legs): improved
- improvement in NYHA symptom class ([4]; 50 mg once daily, both patients, follow-up 126 and 83 days): 1 NYHA symptom class
- weight gain ([4]; patient 1, 50 mg once daily, 126 days, lean and fat tissue gain): 4.6 kg
- weight course ([4]; patient 2, 50 mg once daily, 83 days): stopping the process of weight loss
- insulin sensitivity [5]: improves insulin sensitivity
- gain in VO2 max at anaerobic threshold ([6]; DD genotype): -1.8 ± 6.3 mL/min
- gain in VO2 max at anaerobic threshold ([6]; II genotype): 0.3 ± 6.3 mL/min

Compound: C[C@H](CS)C(=O)N1CCC[C@H]1C(=O)O [captopril]
- increase in liver renin gene expression (renin gene expression): 3 fold

Compound: angiotensin II (DRVYIHPF; Angiotensin-2; UniProt P01019 25-32, looked up) [ATII]
- O2 usage and twitch tension [7]: increases

Compound: CCOC(=O)[C@H](CCc1ccccc1)N[C@@H](C)C(=O)N1[C@H](C(=O)O)C[C@@H]2CCC[C@@H]21 [ramipril]
- effect on systolic blood pressure [8]: no effect on systolic blood pressure
- frequency of first-dose fall in blood pressure [9]: same frequency as is seen with placebo
- effect on systemic blood pressure [10]: without any recordable effect on systemic blood pressure
